In patent US10986838B2, “Herbicides” (SYNGENTA PARTICIPATIONS AG, priority 2016, dated 2021):

What was measured:
Type in all cases: in vivo
Setaria faberi (SETFA) [1] = experiment: Pre-emergence herbicidal activity (B1); details: Test 1b, 1000 g/ha, evaluated after 13 days, 5=total damage to plant, 0=no damage to plant
Description: (§1) B1 Pre-Emergence Herbicidal Activity Seeds of a variety of test species were sown in standard soil in pots: Triticum aestivium (TRZAW), Avena fatua (AVEFA), Alopecurus myosuroides (ALOMY), Echinochloa crus-galli (ECHCG), Lolium perenne (LOLPE), Zea Mays (ZEAMX), Abutilon theophrasti (ABUTH), Amaranthus retroflexus (AMARE) and Setaria faberi (SETFA). After cultivation for one day (pre-emergence) under controlled conditions in a glasshouse (at 24/16° C., day/night; 14 hours light; 65% humidity), the plants were sprayed with an aqueous spray solution derived from the formulation of the technical active ingredient in acetone/water (50:50) solution containing 0.5% Tween 20 (polyoxyethelyene sorbitan monolaurate, CAS RN 9005-64-5). The test plants were then grown in a glasshouse under controlled conditions (at 24/16° C., day/night; 14 hours light; 65% humidity) and watered twice daily. After 13 days, the test was evaluated (5=total damage to plant; 0=no damage to plant). Tables B1a and B1b Control of Weed Species by Compound of Formula (I) after Pre-Emergence Application

[2] = system: Echinochloa crus-galli (ECHCG); experiment: Pre-emergence herbicidal activity (B1); details: Test 1b, 1000 g/ha, evaluated after 13 days, 5=total damage to plant, 0=no damage to plant
Description: as §1

Zea Mays (ZEAMX) [3] = experiment: Pre-emergence herbicidal activity (B1); details: Test 1b, 1000 g/ha, evaluated after 13 days, 5=total damage to plant, 0=no damage to plant
Description: as §1

[4] = system: Abutilon theophrasti (ABUTH); experiment: Pre-emergence herbicidal activity (B1); details: Test 1b, 1000 g/ha, evaluated after 13 days, 5=total damage to plant, 0=no damage to plant
Description: as §1

Lolium perenne (LOLPE) [5] = experiment: Pre-emergence herbicidal activity (B1); details: Test 1b, 1000 g/ha, evaluated after 13 days, 5=total damage to plant, 0=no damage to plant
Description: as §1

[6] = system: Amaranthus retroflexus (AMARE); experiment: Pre-emergence herbicidal activity (B1); details: Test 1b, 1000 g/ha, evaluated after 13 days, 5=total damage to plant, 0=no damage to plant
Description: as §1

Setaria faberi (SETFA) [7] = experiment: Post-emergence herbicidal activity (B2); details: Test B2b, 1000 g/ha, evaluated after 13 days, 5=total damage to plant, 0=no damage to plant
Description: (§2) B2 Post-Emergence Herbicidal Activity Seeds of a variety of test species were sown in standard soil in pots: Triticum aestivium (TRZAW), Avena fatua (AVEFA), Alopecurus myosuroides (ALOMY), Echinochloa crus-galli (ECHCG), Lolium perenne (LOLPE), Zea Mays (ZEAMX), Abutilon theophrasti (ABUTH), Amaranthus retroflexus (AMARE) and Setaria faberi (SETFA). After 8 days cultivation (post-emergence) under controlled conditions in a glasshouse (at 24/16° C., day/night; 14 hours light; 65% humidity), the plants were sprayed with an aqueous spray solution derived from the formulation of the technical active ingredient in acetone/water (50:50) solution containing 0.5% Tween 20 (polyoxyethelyene sorbitan monolaurate, CAS RN 9005-64-5). The test plants were then grown in a glasshouse under controlled conditions (at 24/16° C., day/night; 14 hours light; 65% humidity) and watered twice daily. After 13 days, the test was evaluated (5=total damage to plant; 0=no damage to plant). Tables B2a and B2b Control of Weed Species by Compound of Formula (I) after Post-Emergence Application

[8] = system: Echinochloa crus-galli (ECHCG); experiment: Post-emergence herbicidal activity (B2); details: Test B2b, 1000 g/ha, evaluated after 13 days, 5=total damage to plant, 0=no damage to plant
Description: as §2

Zea Mays (ZEAMX) [9] = experiment: Post-emergence herbicidal activity (B2); details: Test B2b, 1000 g/ha, evaluated after 13 days, 5=total damage to plant, 0=no damage to plant
Description: as §2

[10] = system: Abutilon theophrasti (ABUTH); experiment: Post-emergence herbicidal activity (B2); details: Test B2b, 1000 g/ha, evaluated after 13 days, 5=total damage to plant, 0=no damage to plant
Description: as §2

Lolium perenne (LOLPE) [11] = experiment: Post-emergence herbicidal activity (B2); details: Test B2b, 1000 g/ha, evaluated after 13 days, 5=total damage to plant, 0=no damage to plant
Description: as §2

[12] = system: Amaranthus retroflexus (AMARE); experiment: Post-emergence herbicidal activity (B2); details: Test B2b, 1000 g/ha, evaluated after 13 days, 5=total damage to plant, 0=no damage to plant
Description: as §2

SMILES	SETFA damage score (Setaria faberi (SETFA) [1])	ECHCG damage score [2]	ZEAMX damage score (Zea Mays (ZEAMX) [3])	ABUTH damage score [4]	LOLPE damage score (Lolium perenne (LOLPE) [5])	AMARE damage score [6]	SETFA damage score (Setaria faberi (SETFA) [7])	ECHCG damage score [8]	ZEAMX damage score (Zea Mays (ZEAMX) [9])	ABUTH damage score [10]	LOLPE damage score (Lolium perenne (LOLPE) [11])	AMARE damage score [12]
CNc1ccc(-c2cncc(F)c2)nc1C(F)(F)F [Compound A5]	5	2	4	1	1	2	5	4	5	1	4	1
CNc1ccc(-c2cncc(C)c2)nc1C(F)(F)F [Compound A6]	1	0	0	1	0	1	3	1	1	0	1	0
CNc1ccc(-c2cncc(C(F)(F)F)c2)nc1C(F)(F)F [Compound A7]	3	0	0	1	0	1	3	1	1	0	1	1
Cc1nc(-c2cncc(F)c2)ccc1N [Compound A8]	5	2	3	0	1	0	5	4	5	0	3	0
N#Cc1nc(-c2cncc(F)c2)ccc1N [Compound A9, 3-amino-6-(5-fluoro-3-pyridyl)pyridine-2-carbonitrile]	4	4	2	1	0	1	4	4	4	1	1	1
CNc1ccc(-c2cncc(OC)c2)nc1C(F)(F)F [Compound A10]	2	0	1	1	0	1	3	1	2	0	1	1
CNc1ccc(-c2cccnc2)nc1C(F)(F)F [Compound A11]	5	2	1	1	1	1	5	4	2	1	4	1
Cc1nc(-c2cncc(C(F)(F)F)c2)ccc1N [Compound A12]	0	0	0	0	0	0	1	1	1	0	0	0
